Our source for the EC50 and CC50 values is patent publication US20220089598A1, “INHIBITORS OF HUMAN IMMUNODEFICIENCY VIRUS REPLICATION” (VIIV HEALTHCARE UK (No. 5) LIMITED, priority 2018, published 2022).

For series [1], the system named is recombinant NL4-3 virus (Renilla luciferase) in MT-2 cells. As to the kind of experiment: HIV cell culture assay (antiviral activity, luciferase readout). The class given is cell-based. Conditions: Renilla, NL43. Here is the method: HIV cell culture assay—MT-2 cells, 293T cells and the proviral DNA clone of NL4-3 virus were obtained from the NIH AIDS Research and Reference Reagent Program. MT-2 cells were propagated in RPMI 1640 media supplemented with 10% heat inactivated fetal bovine serum (FBS), 100 μg/ml penicillin G and up to 100 units/mL streptomycin. The 293T cells were propagated in DMEM media supplemented with 10% heat inactivated FBS, 100 μg/mL penicillin G and 100 μg/mL streptomycin. A recombinant NL4-3 proviral clone, in which a section of the nef gene was replaced with the Renilla luciferase gene, was used to make the reference virus used in these studies. The recombinant virus was prepared through transfection of the recombinant NL4-3 proviral clone into 293T cells using Transit-293 Transfection Reagent from Mirus Bio LLC (Madison, Wis.). Supernatent was harvested after 2-3 days and the amount of virus present was titered in MT-2 cells using luciferase enzyme activity as a marker by measuring luciferase enzyme activity. Luciferase was quantitated using the EnduRen Live Cell Substrate from Promega (Madison, Wis.). Antiviral activities of compounds toward the recombinant virus were quantified by measuring luciferase activity in MT-2 cells infected for 4-5 days with the recombinant virus in the presence of serial dilutions of the compound.
The 50% effective concentration (EC50) was calculated by using the exponential form of the median effect equation where (Fa)=1/[1+(ED50/drug conc.)m] (Johnson V A, Byington R T. Infectivity Assay. In Techniques in HIV Research. ed. Aldovini A, Walker B D. 71-76. New York: Stockton Press. 1990).

A short description of series [2]: Compound cytotoxicity, XTT-based colorimetric assay. The series is classed as cell-based. The note with it: human; uninfected MT2 cells, day 4, XTT assay. As to the method:
Compound cytotoxicity and the corresponding CC50 values were determined using the same protocol as described in the antiviral assay except that uninfected cells were used. Cytotoxicity was assessed on day 4 in uninfected MT2 cells by using a XTT (2,3-bis[2-Methoxy-4-nitro-5-sulfophenyl]-2H-tetrazolium-5-carboxyanilide inner salt)-based colorimetric assay (Sigma-Aldrich, St Louis, Mo.).
In general terms: Formazan colour is commonly taken as a measure of viable cells.

Consider `Cn1nc(NS(C)(=O)=O)c2c(Cl)ccc(-n3c([C@H](Cc4cc(F)cc(F)c4)NC(=O)Cn4nc(C(F)F)c5c4C(F)(F)[C@@H]4C[C@H]54)nc4nc(-c5ccc(C(F)(F)F)cc5)ccc4c3=O)c21` (atropisomer, axis not shown; (P)) [Example 14, N—((S)-1-((3P)-3-(4-chloro-1-methyl-3-(methylsulfonamido)-1H-indazol-7-yl)-4-oxo-7-(4-(trifluoromethyl)phenyl)-3,4-dihydropyrido[2,3-d]pyrimidin-2-yl)-2-(3,5-difluorophenyl)ethyl)-2-((3bS,4aR)-3-(difluoromethyl)-5,5-difluoro-3b,4,4a,5-tetrahydro-1H-cyclopropa[3,4]cyclopenta[1,2-c]pyrazol-1-yl)acetamide], for which the half-maximal effective concentration (EC50) (in general, the concentration giving half of the maximal effect) in series [1] is 0.084 nM. Besides, in series [2], the CC50 (in general, the concentration giving 50% cytotoxicity) at 4 day was greater than 100 nM.
The like results for `Cn1nc(NS(C)(=O)=O)c2c(Cl)ccc(-n3c([C@H](Cc4cc(F)cc(F)c4)NC(=O)Cn4nc(C(F)F)c5c4C(F)(F)[C@@H]4C[C@H]54)nc4nc(-c5ccc(F)cc5F)ccc4c3=O)c21` (atropisomer, axis not shown; (P)) [Example 39, N—((S)-1-((3P)-3-(4-chloro-1-methyl-3-(methylsulfonamido)-1H-indazol-7-yl)-7-(2,4-difluorophenyl)-4-oxo-3,4-dihydropyrido[2,3-d]pyrimidin-2-yl)-2-(3,5-difluorophenyl)ethyl)-2-((3bS,4aR)-3-(difluoromethyl)-5,5-difluoro-3b,4,4a,5-tetrahydro-1H-cyclopropa[3,4]cyclopenta[1,2-c]pyrazol-1-yl)acetamide] were, in that order, 0.047 nM and greater than 500 nM.
Consider `Cn1nc(NS(C)(=O)=O)c2c(Cl)ccc(-n3c([C@H](Cc4cc(F)cc(F)c4)NC(=O)Cn4nc(C(F)F)c5c4C(F)(F)[C@@H]4C[C@H]54)nc4nc(-c5c(F)cc(F)cc5F)ccc4c3=O)c21` (atropisomer, axis not shown; (P)) [Example 28, N—((S)-1-((3P)-3-(4-chloro-1-methyl-3-(methylsulfonamido)-1H-indazol-7-yl)-4-oxo-7-(2,4,6-trifluorophenyl)-3,4-dihydropyrido[2,3-d]pyrimidin-2-yl)-2-(3,5-difluorophenyl)ethyl)-2-((3bS,4aR)-3-(difluoromethyl)-5,5-difluoro-3b,4,4a,5-tetrahydro-1H-cyclopropa[3,4]cyclopenta[1,2-c]pyrazol-1-yl)acetamide], for which the EC50 in series [1] is 0.032 nM. The same molecule registered a CC50 at 4 day in series [2] greater than 100 nM.
Take `Cn1nc(NS(C)(=O)=O)c2c(Cl)ccc(-n3c([C@H](Cc4cc(F)cc(F)c4)NC(=O)Cn4nc(C(F)F)c5c4C(F)(F)[C@@H]4C[C@H]54)nc4nc(-c5ccc(F)c(CO)c5)ccc4c3=O)c21` (atropisomer, axis not shown; (P)) [Example 5, N—((S)-1-((3P)-3-(4-chloro-1-methyl-3-(methylsulfonamido)-1H-indazol-7-yl)-7-(4-fluoro-3-(hydroxymethyl)phenyl)-4-oxo-3,4-dihydropyrido[2,3-d]pyrimidin-2-yl)-2-(3,5-difluorophenyl)ethyl)-2-((3bS,4aR)-3-(difluoromethyl)-5,5-difluoro-3b,4,4a,5-tetrahydro-1H-cyclopropa[3,4]cyclopenta[1,2-c]pyrazol-1-yl)acetamide]: in series [1], the EC50 was 0.16 nM. The molecule further registered a CC50 at 4 day in series [2] greater than 500 nM.
For `Cn1nc(NS(C)(=O)=O)c2c(Cl)ccc(-n3c([C@H](Cc4cc(F)cc(F)c4)NC(=O)Cn4nc(C(F)(F)F)c5c4C(F)(F)[C@@H]4C[C@H]54)nc4nc(-c5ccccc5F)ccc4c3=O)c21` (atropisomer, axis not shown; (P)) [Example 17, N—((S)-1-((3P)-3-(4-chloro-1-methyl-3-(methylsulfonamido)-1H-indazol-7-yl)-7-(2-fluorophenyl)-4-oxo-3,4-dihydropyrido[2,3-d]pyrimidin-2-yl)-2-(3,5-difluorophenyl)ethyl)-2-((3bS,4aR)-5,5-difluoro-3-(trifluoromethyl)-3b,4,4a,5-tetrahydro-1H-cyclopropa[3,4]cyclopenta[1,2-c]pyrazol-1-yl)acetamide], the EC50 in series [1] stood at 0.065 nM. Besides, in series [2], the CC50 at 4 day was greater than 100 nM.
For the molecule `Cn1nc(NS(C)(=O)=O)c2c(Cl)ccc(-n3c([C@H](Cc4cc(F)cc(F)c4)NC(=O)Cn4nc(C(F)F)c5c4C(F)(F)[C@@H]4C[C@H]54)nc4cc(-c5ccc(F)cc5F)cnc4c3=O)c21` (atropisomer, axis not shown; (P)) [Example 37, N—((S)-1-((3P)-3-(4-chloro-1-methyl-3-(methylsulfonamido)-1H-indazol-7-yl)-7-(2,4-difluorophenyl)-4-oxo-3,4-dihydropyrido[3,2-d]pyrimidin-2-yl)-2-(3,5-difluorophenyl)ethyl)-2-((3bS,4aR)-3-(difluoromethyl)-5,5-difluoro-3b,4,4a,5-tetrahydro-1H-cyclopropa[3,4]cyclopenta[1,2-c]pyrazol-1-yl)acetamide], the concentration giving a half-maximal response (EC50) in series [1] turned out to be 2 nM. The same molecule came in with a cytotoxic concentration (CC50) at 4 day in series [2] greater than 500 nM.
As for `Cn1nc(NS(C)(=O)=O)c2c(Cl)ccc(-n3c([C@H](Cc4cc(F)cc(F)c4)NC(=O)Cn4nc(C(F)F)c5c4C(F)(F)[C@@H]4C[C@H]54)nc4nc(-c5ccc(F)c(Cl)c5)ccc4c3=O)c21` (atropisomer, axis not shown; (P)) [Example 29, N—((S)-1-((3P)-3-(4-chloro-1-methyl-3-(methylsulfonamido)-1H-indazol-7-yl)-7-(3-chloro-4-fluorophenyl)-4-oxo-3,4-dihydropyrido[2,3-d]pyrimidin-2-yl)-2-(3,5-difluorophenyl)ethyl)-2-((3bS,4aR)-3-(difluoromethyl)-5,5-difluoro-3b,4,4a,5-tetrahydro-1H-cyclopropa[3,4]cyclopenta[1,2-c]pyrazol-1-yl)acetamide], in series [1], the EC50 came to 0.12 nM. The CC50 at 4 day in series [2] is greater than 100 nM.
For `CS(=O)(=O)Nc1nn(CC(F)(F)F)c2c(-n3c([C@H](Cc4cc(F)cc(F)c4)NC(=O)Cn4nc(C(F)(F)F)c5c4C(F)(F)[C@@H]4C[C@H]54)nc4nc(-c5ccccc5F)ccc4c3=O)ccc(Cl)c12` (atropisomer, axis not shown; (P)) [Example 11, N—((S)-1-((3P)-3-(4-chloro-3-(methylsulfonamido)-1-(2,2,2-trifluoroethyl)-1H-indazol-7-yl)-7-(2-fluorophenyl)-4-oxo-3,4-dihydropyrido[2,3-d]pyrimidin-2-yl)-2-(3,5-difluorophenyl)ethyl)-2-((3bS,4aR)-5,5-difluoro-3-(trifluoromethyl)-3b,4,4a,5-tetrahydro-1H-cyclopropa[3,4]cyclopenta[1,2-c]pyrazol-1-yl)acetamide], in series [1], the EC50 was 0.15 nM. The molecule further registered a CC50 at 4 day in series [2] greater than 100 nM.
The corresponding values for `Cn1nc(NS(C)(=O)=O)c2c(Cl)ccc(-n3c([C@H](Cc4cc(F)cc(F)c4)NC(=O)Cn4nc(C(F)F)c5c4C(F)(F)[C@@H]4C[C@H]54)nc4nc(-c5ccc(Cl)cc5Cl)ccc4c3=O)c21` (atropisomer, axis not shown; (P)) [Example 25, N—((S)-1-((3P)-3-(4-chloro-1-methyl-3-(methylsulfonamido)-1H-indazol-7-yl)-7-(2,4-dichlorophenyl)-4-oxo-3,4-dihydropyrido[2,3-d]pyrimidin-2-yl)-2-(3,5-difluorophenyl)ethyl)-2-((3bS,4aR)-3-(difluoromethyl)-5,5-difluoro-3b,4,4a,5-tetrahydro-1H-cyclopropa[3,4]cyclopenta[1,2-c]pyrazol-1-yl)acetamide] are 0.42 nM and greater than 100 nM.
